Reference: US20090170886A1 (Pfizer Inc, priority 2005, published 2009)
Substitutions are numbered along the chain they refer to. Read-outs that look alike come from different tables or passages of the source.

Assays:
[1] = molecular target: T1, androgen receptor in MDA-MB453-MMTV clone 54-19 cells (Homo sapiens, UniProt P10275); experiment: AR Antagonist Cell Assay (MMTV-luciferase reporter, DHT-induced); type: cell-based; details: MDA-MB453-MMTV clone 54-19, 100 pM DHT, 17 hr; mean of multiple tests
T1 sequence (P10275 1-920 Q868H): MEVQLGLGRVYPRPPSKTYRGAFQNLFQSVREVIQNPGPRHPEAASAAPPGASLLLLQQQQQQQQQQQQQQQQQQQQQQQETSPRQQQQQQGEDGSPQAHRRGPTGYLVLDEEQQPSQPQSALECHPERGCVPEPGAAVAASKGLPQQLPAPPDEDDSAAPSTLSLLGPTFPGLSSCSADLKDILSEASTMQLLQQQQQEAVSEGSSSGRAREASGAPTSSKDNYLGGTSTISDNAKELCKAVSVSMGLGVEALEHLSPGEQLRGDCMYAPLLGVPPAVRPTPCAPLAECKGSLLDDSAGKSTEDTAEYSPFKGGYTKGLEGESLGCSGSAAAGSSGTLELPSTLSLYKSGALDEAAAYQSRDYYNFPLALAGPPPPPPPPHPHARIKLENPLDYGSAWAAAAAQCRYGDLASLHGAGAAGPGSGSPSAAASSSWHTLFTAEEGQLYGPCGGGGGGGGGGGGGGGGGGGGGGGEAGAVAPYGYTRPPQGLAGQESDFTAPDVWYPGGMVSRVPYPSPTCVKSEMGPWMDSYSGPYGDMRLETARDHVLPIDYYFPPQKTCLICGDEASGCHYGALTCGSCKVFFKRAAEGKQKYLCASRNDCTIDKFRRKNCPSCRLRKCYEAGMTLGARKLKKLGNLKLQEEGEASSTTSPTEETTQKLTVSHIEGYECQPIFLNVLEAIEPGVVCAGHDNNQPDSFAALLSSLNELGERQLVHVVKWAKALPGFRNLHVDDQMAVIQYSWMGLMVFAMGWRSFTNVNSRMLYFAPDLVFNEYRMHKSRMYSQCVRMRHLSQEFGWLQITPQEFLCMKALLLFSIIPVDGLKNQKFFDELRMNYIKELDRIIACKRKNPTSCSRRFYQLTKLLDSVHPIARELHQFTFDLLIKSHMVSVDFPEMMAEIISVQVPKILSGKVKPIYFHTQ
Protocol: The compounds ability to antagonize the effects of androgen on the androgen receptor were determined in a whole cell assay as described immediately below.
Cell line: MDA-MB453-MMTV clone 54-19. This cell line is a stable transfected cell line with MDA-MB453 cell background (a human breast tumor cell line expressing androgen receptor). A MMTV minimal promoter containing ARE was first cloned in front of a firefly luciferase reporter gene. Then the cascade was cloned into transfection vector pUV120puro. Electroporation method was used for transfecting MDA-MB-453 cell. Puromycin resistant stable cell line was selected.
Culture medium: DMEM (high glucose, Gibco cat #: 11960-044), 10% FBS, and 1% L-glutamine
Plating medium: DMEM (phenol red free), 10% charcoal treated HyClone serum, 1% L-glutamine
Assay medium: DMEM (phenol red free), 1% charcoal treated HyClone serum, 1% L-glutamine, and 1% penicillin/streptomycin
3× luciferase buffer: 2% beta-mercaptoethanol, 0.6% ATP, 0.0135% luciferine in cell lysis buffer
Cells are maintained in culture medium, splitting cells when they reach 80-90% confluence. To test compounds, 10,000 cells/well are plated to opaque 96 cell culture plate in 100 ul/well plating medium, culture for overnight at 37° C. in cell culture incubator. Carefully remove plating medium, then add 80 ul/well of pre-warmed assay medium, add 10 ul/well testing compound (final concentration at) 1000 nM, 200 nM, 40 nM, 8 nM, 1.6 nM, and 0.32 nM), incubate at 37° C. for 30 minutes. Add 10 ul/well freshly prepared DHT (final concentration at 100 pM) to each well, incubate at 37° C. for 17 hr (overnight). Add 50 ul/well 3× luciferase buffer, incubate at room temperature for 5 minutes, then count on Luminometer. The fold induction over background by 100 pM DHT in the absence of testing compounds is standardized as 100% and experimental result is expressed as percentage of inhibition by testing compounds.
The results are reported as the mean of multiple tests as described below (the numbers of tests are indicated in the footnote). ND denotes that the compound was not tested.

[2] = molecular target: T2, hAR (human androgen receptor, baculovirus/Sf9 generated extracts) (Homo sapiens, UniProt P10275); experiment: AR Binding Assay (competitive binding with 3H-DHT tracer); details: 1 nM 3H-DHT, one hour at 4° C., mean of multiple tests
T2 construct: made in house; host or cells: baculovirus/Sf9 insect cells (crude extract)
T2 sequence (P10275 1-920): T1 sequence (P10275 1-920 Q868H) with H868Q
Protocol: The compounds of Formula I have affinity for the androgen receptor. […] The description below describes how the assay was carried out.
Competitive binding analysis was performed on baculovirus/Sf9 generated hAR extracts in the presence or absence of different concentrations of test agent and a fixed concentration of ^3H-dihydrotestosterone (^3H-DHT) as tracer. This binding assay method is a modification of a protocol previously described (Liao S., et. al., J. Steroid Biochem., 20:11-17, 1984). Briefly, progressively decreasing concentrations of compounds are incubated in the presence of hAR extract (Chang et al., P.N.A.S., Vol. 89, pp. 5546-5950, 1992), hydroxylapatite, and 1 nM ^3H-DHT for one hour at 4° C. Subsequently, the binding reactions are washed three times to completely remove excess unbound ^3H-DHT. hAR bound ^3H-DHT levels are determined in the presence of compounds (i.e. competitive binding) and compared to levels bound when no competitor is present (i.e. maximum binding). Compound binding affinity to the hAR is expressed as the concentration of compound at which one half of the maximum binding is inhibited. Table II below provides the results that were obtained for selected compounds (reported data is the mean of multiple tests as shown below).

[3] = hAR extract, read-out: AR Binding IC50

Row | Structure (SMILES) | IC50 [1] | IC50 ([2]; AR Binding IC50, hAR extract) | IC50 [2, 3]
1 | Cc1cccc(COc2ccc(C#N)c(Cl)c2)c1 [Example 64, 2-Chloro-4-(3-methyl-benzyloxy)-benzonitrile] | > 1000 nM | 74 nM | –
2 | CCCC(Oc1ccc(C#N)c(C(F)(F)F)c1)c1cncc(O)c1 (stereo not shown) [Example 95, 4-[1-(5-Hydroxy-pyridin-3-yl)-butoxy]-2-trifluoromethyl-benzonitrile] | 37 nM | 68 nM | –
3 | COc1ccccc1COc1ccc(C#N)c(C(F)(F)F)c1 [Example 45, 4-(2-Methoxy-benzyloxy)-2-trifluoromethyl-benzonitrile] | > 1000 nM | – | –
4 | COCCOCOc1cncc(C(CC(C)C)Oc2ccc(C#N)c(C(F)(F)F)c2)c1 (stereo not shown) [Example 93, 4-{1-[5-(2-Methoxy-ethoxymethoxy)-pyridin-3-yl]-3-methyl-butoxy}-2-trifluoromethyl-benzonitrile] | 202 nM | 98 nM | –
5 | CCCC(Oc1ccc(C#N)c(C(F)(F)F)c1)c1cncc(OCOCCOC)c1 (stereo not shown) [Example 92] | > 934 nM | 74 nM | –
6 | C=CCC(Oc1ccc(C#N)c(C(F)(F)F)c1)c1cccc(O)c1 (single isomer, unassigned; (+)) [Example 18, (+)4-{[1-(3-Hydroxyphenyl)but-3-enyl]oxy}-2-(trifluoromethyl)benzonitrile] | 86 nM | 17 nM | –
7 | C=CCC(Oc1ccc(C#N)c(C(F)(F)F)c1)c1cccc(O)c1 (racemic) [Example 17, 4-{[1-(3-Hydroxyphenyl)but-3-enyl]oxy}-2-(trifluoromethyl)benzonitrile] | 105 nM | 14 nM | –
8 | Cc1cccc(C(CC(C)C)Oc2ccc(C#N)c(C(F)(F)F)c2)n1 (stereo not shown) [Example 85, 4-[3-Methyl-1-(6-methyl-pyridin-2-yl)-butoxy]-2-trifluoromethyl-benzonitrile] | > 1000 nM | – | 167 nM
9 | CC(Oc1ccc(C#N)c(C(F)(F)F)c1)c1ccccc1Cl (stereo not shown) [Example 22, 4-[1-(2-Chloro-phenyl)-ethoxy]-2-trifluoromethyl-benzonitrile] | 102 nM | – | 108 nM
10 | N#Cc1ccc(OCc2ccccc2)cc1C(F)(F)F [Example 50, 4-Benzyloxy-2-trifluoromethyl-benzonitrile] | 508 nM | – | 174 nM
11 | N#Cc1ccc(OCc2ccccc2)cc1Cl [Example 59, 4-Benzyloxy-2-chloro-benzonitrile] | 108 nM | – | 38 nM
12 | C=CC(Oc1ccc(C#N)c(C(F)(F)F)c1)c1cccc(O)c1 (stereo not shown) [Example 16, 4-{[1-(3-Hydroxyphenyl)prop-2-enyl]oxy}-2-(trifluoromethyl)benzonitrile] | 416 nM | 11 nM | –
13 | COc1cccc(CCOc2ccc(C#N)c(C(F)(F)F)c2)c1 [Example 77, 4-[2-(3-Methoxy-phenyl)-ethoxy]-2-trifluoromethyl-benzonitrile] | 11 nM | 109 nM | –
14 | CC(Oc1ccc(C#N)c(C(F)(F)F)c1)c1cccc(O)c1 (racemic) [Example 8, 4-[1-(3-Hydroxyphenyl)ethoxy]-2-(trifluoromethyl)benzonitrile] | 529 nM | 21 nM | –
15 | N#Cc1ccc(CCOc2ccc(C#N)c(C(F)(F)F)c2)cc1 [Example 75, 4-[2-(4-Cyano-phenyl)-ethoxy]-2-trifluoromethyl-benzonitrile] | 55 nM | 343 nM | –
16 | Cc1cccc(C(C)Oc2ccc(C#N)c(Cl)c2)c1 (stereo not shown) [Example 60, 2-Chloro-4-(1-m-tolyl-ethoxy)-benzonitrile] | > 1000 nM | 74 nM | –
17 | CC(Oc1ccc(C#N)c(C(F)(F)F)c1)c1cccc(O)c1 (single isomer, unassigned; (+)) [Example 10, (+)-4-[1-(3-Hydroxyphenyl)ethoxy]-2-(trifluoromethyl)benzonitrile] | ≥ 1000 nM | 3 nM | –
18 | CC(C)(Oc1ccc(C#N)c(Cl)c1)c1ccccc1 [Example 70, 2-Chloro-4-(1-methyl-1-phenyl-ethoxy)-benzonitrile] | > 1000 nM | 53 nM | –
19 | Cc1ccccc1COc1ccc(C#N)c(Cl)c1 [Example 65, 2-Chloro-4-(2-methyl-benzyloxy)-benzonitrile] | > 1000 nM | – | 129 nM
20 | CC(Oc1ccc(C#N)c(C(F)(F)F)c1)c1cccnc1 (racemic) [Example 33, 4-(1-Pyridin-3-yl-ethoxy)-2-trifluoromethyl-benzonitrile] | 63 nM | 192 nM | –
21 | CC(Oc1ccc(C#N)cc1Cl)c1ccccc1 (stereo not shown) [Example 57, 3-Chloro-4-(1-phenyl-ethoxy)-benzonitrile] | 86 nM | 240 nM | –
22 | C[C@H](Oc1ccc(C#N)c(C(F)(F)F)c1)c1ccccc1 [Example 2, (S)-4-(1-Phenyl-ethoxy)-2-trifluoromethyl-benzonitrile] | 381 nM | 13 nM | –
